According to US11247970B2, “Selective inhibition of gluconeogenic activity” (Dana-Farber Cancer Institute, Inc., priority 2017, dated 2022):

Experiments:
[1] = system: CREB, TORC2, Akt phosphorylation; assay: Western blot of glucagon and insulin signaling in hepatocytes; type: cell-based, mouse
Procedure: (§1) For measurement of acetylation, gene expression and glucose production SR-18292 ([…]) was added to cells overnight and fresh compound was added the following day for additional 3 h before collecting the cells (for total of ˜18 h treatment). Where insulin and glucagon stimulation were performed, the medium was changed to starvation medium (DMEM, 0.2% BSA, 2 mM sodium pyruvate, and 1% penicillin/streptomycin) with fresh compound for the last 3 h and cells were stimulated with either 100 nM insulin or 200 nM glucagon for an extra 1.5 h. For glucose measurements following PGC-1α over expression cells were incubated for the last 3 h in glucose-free medium (phenol-red/glucose free DMEM, 0.2% BSA, 2 mM sodium pyruvate and 20 mM sodium lactate or 10 mM glycerol in case glycerol was used as substrate). For glucose measurements following glucagon stimulation cells were incubated for the last 4 h in the same glucose-free medium that also contained glucagon (200 nM). The glucose level in the medium was measured using a glucose assay kit from Eton Bioscience Inc. by adding […] of assay buffer to […] of medium followed by 15 min incubation at 37° C. Absorbance was measured at 490 nm.

[2] = system: HFD-fed mice; assay: Hyperinsulinemic-euglycemic clamp; type: in vivo
Procedure: Hyperinsulinemic-euglycemic clamps were performed on mice fed HFD for 16 weeks as previously described with minor modifications (Jurczak et al., 2012). Briefly, an indwelling catheter was surgically implanted in the right jugular vein 7 days prior to study. Three days before study, mice were injected with SR-18292 and vehicle control following the same protocol described above. Mice were fasted overnight prior to clamps and then infused with a fixed amount of insulin [4 mU/(kg-min)] and a variable amount of 20% dextrose to maintain euglycemia. [3-H]glucose was included in the infusate to allow for the calculation of whole-body rates of glucose metabolism.

[3] = target: T1, PGC-1α (Mus musculus, UniProt O70343); assay: Western blot of PGC-1α acetylation in primary hepatocytes; type: cell-based; parameters: expressed in transfected cells; host or cells: primary hepatocytes of C57BL/6 mice infected with Ad-PGC-1α and Ad-GCN5
T1 sequence (O70343 1-797): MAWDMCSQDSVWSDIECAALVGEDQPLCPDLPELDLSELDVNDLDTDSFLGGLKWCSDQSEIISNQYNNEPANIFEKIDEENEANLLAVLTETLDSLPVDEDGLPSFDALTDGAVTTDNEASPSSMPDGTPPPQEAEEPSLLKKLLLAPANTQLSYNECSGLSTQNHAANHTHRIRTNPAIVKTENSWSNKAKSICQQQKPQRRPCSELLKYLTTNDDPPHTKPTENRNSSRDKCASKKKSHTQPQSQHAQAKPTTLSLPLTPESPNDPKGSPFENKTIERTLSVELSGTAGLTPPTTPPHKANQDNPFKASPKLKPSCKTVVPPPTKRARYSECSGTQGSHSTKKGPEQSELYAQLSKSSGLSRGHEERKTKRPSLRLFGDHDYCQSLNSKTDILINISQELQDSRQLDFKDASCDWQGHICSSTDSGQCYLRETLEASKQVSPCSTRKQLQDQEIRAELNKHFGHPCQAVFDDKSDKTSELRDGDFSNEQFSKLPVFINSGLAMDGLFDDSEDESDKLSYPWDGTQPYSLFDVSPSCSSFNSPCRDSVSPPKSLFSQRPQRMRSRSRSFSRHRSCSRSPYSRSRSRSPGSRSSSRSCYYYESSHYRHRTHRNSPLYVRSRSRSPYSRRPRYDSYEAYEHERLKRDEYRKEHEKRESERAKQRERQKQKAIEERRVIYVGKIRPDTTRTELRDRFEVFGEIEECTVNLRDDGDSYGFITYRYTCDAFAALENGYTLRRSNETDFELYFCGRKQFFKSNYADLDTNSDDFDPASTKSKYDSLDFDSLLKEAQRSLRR
Procedure: as §1
For PGC-1α acetylation detection in hepatocytes cells were infected with Ad-PGC-1α and Ad-GCN5. […]

[4] = system: Pck1 and G6pc promoters; assay: Chromatin immunoprecipitation on Pck1 and G6pc in primary hepatocytes; type: cell-based, mouse
Procedure: Primary hepatocytes were fixed in 1% formaldehyde for 10 minutes at room temperature. Crosslinking was quenched by adding glycine to a final concentration of 125 mM and rinsing twice with PBS. Cells were collected in PBS containing protease inhibitors followed by lysis in chromatin immunoprecipitation (ChIP) buffer (50 mM HEPES pH, 7.9; 140 mM NaCl; 1 mM EDTA; 1% Triton X-100; 0.1% NaDOC, 0.1% sodium dodecyl sulfate (SDS) and protease inhibitors). Chromatin was sheared by sonication with a Diagenode Biorupter for three cycles of 5 minutes (30 seconds on, 30 seconds off). Samples were clarified and chromatin immunoprecipitated overnight at 4° C. with the indicated antibody. Immune complexes were recovered with Protein A magnetic beads (Dynabeads; Novex, Life Technologies) preblocked with salmon sperm DNA (Invitrogen, Life Technologies). Following extensive washes, immunoprecipitated DNA was then isolated with a Chelex. Input DNA was prepared from 10% of respective chromatin prior to precipitation. Immunoprecipitated DNA and input DNA were analyzed by quantitative real-time PCR with primers specific for the indicated region. […] To further characterize the SR-18292-mediated inhibition of HNF4α transcriptional activity, chromatin immunoprecipitation (ChIP) assays were performed to examine the promoter occupancy of HNF4α on Pck1 and [MUT] promoters. Primary hepatocytes were treated with glucagon to induce gluconeogenic gene transcripts, and antibodies against HNF4α were used to IP chromatin fragments bound to this protein. […] Epigenetic changes accompany the response to glucagon in the fasted state, including an increase in activating H3K9 acetylation (H3K9Ac) and H3K4 trimethylation (H3K4Me3) of the Pck1 and [MUT] genes.

[5] = Serum biochemistry for liver toxicity; type: in vivo; settings: HFD mice
Procedure: Serum samples were gathered from blood collected by cardiac puncture. Insulin was measured with Ultra Sensitive Mouse Insulin ELISA Kit (Crystal Chem, 90080). Kits used to measure alanine transaminase (EALT-100), aspartate transaminase (EASTR-100), lactate dehydrogenase (DLDH-100) were purchased from Bioassay Systems. Kits used to measure lactate (MAK 064), b-hydroxybutyrate (MAK 041), Triglycerides (TR0100) were purchased from Sigma. Kit used to measure cholesterol (C7510) was purchased from Pointe Scientific. Kit used to measure non-esterified fatty acids was purchased from Wako.
Serum enzymatic activities of alanine transaminase (ALT), aspartate aminotransferase (AST), lactate dehydrogenase (LDH) and bilirubin levels from mice fed high fat diet and treated with SR-18292. n=7.

## Cc1ccc(CN(CC(O)COc2cccc3[nH]ccc23)C(C)(C)C)cc1 (stereo not drawn) [SR-18292, 1-((1H-indol-4-yl)oxy)-3-(tert-butyl(4-methylbenzyl)amino)propan-2-ol]
[1]; glucagon 200 nM
  glucagon-induced phosphorylation of CREB and dephosphorylation of CRTC2: without disrupting
[1]; insulin 100 nM
  cell autonomous enhancement of insulin signaling (Akt S473): not observed
[2]; HFD 16 weeks
  glucose infusion rate vs vehicle: substantially higher
  peripheral glucose uptake: not due to improved peripheral glucose uptake
[2]; basal and clamp conditions
  endogenous glucose production: reduced endogenous glucose production
[3]; primary hepatocytes, Ad-PGC-1α and Ad-GCN5, 18 h
  PGC-1α acetylation: increased PGC-1α acetylation
[3]; with Ex-527 (SIRT1 inhibitor) and Trichostatin A
  PGC-1α acetylation in presence of deacetylase inhibitors: increased acetylation of PGC-1α even in the presence of Ex-527
[4]
  FoxO1 promoter occupancy: not altered
  H3K9Ac and H3K4Me3 marks on the Pck1 gene: reduced H3K9Ac and H3K4Me3 marks
[4]; glucagon 200 nM
  glucagon-induced Pck1 and G6pc promoter occupancy by HNF4α: significantly reduced
[5]
  liver toxicity by serum ALT, AST, LDH and bilirubin: not observed
[5]; serum, 45 mg/kg, n=7
  ALT: 9.21 U/L
  AST: 29.94 U/L
  Bilirubin: 0.33 mg/dL
  LDH: 64.44 IU/L
